Among the data in DBAASP are MIC values, retold here.

Structures are written as SMILES. Converted amounts (≈) assume the structure as drawn.

Some test systems named below: Klebsiella pneumoniae; Serratia marcescens; Pseudomonas aeruginosa; Staphylococcus aureus; Bacillus subtilis 168; Escherichia coli B.
Common to all, as to assay: ≥ marks a high value that may be exact or a test limit, other limits are often not marked, values filed in µg/mL are converted to µM
The subject of assay [1] is Staphylococcus aureus ATCC 2592.
The subject of assay [2] is Escherichia coli ATCC 25922.
The subject of assay [3] is Candida albicans F7-39/IDE99.
In assay [4] the test system is Staphylococcus aureus TK784.
Assay [5] has as its system Staphylococcus aureus ATCC 6538P.
The test system of assay [6] is Pseudomonas aeruginosa ATCC 27853.
In assay [7] the test system is Micrococcus luteus ATCC 10240.
Assay [8] relates to Bacillus subtilis ATCC 6633.
Assay [9] concerns Salmonella enterica subsp. enterica serovar Typhimurium ATCC 14028.
Assay [10] deals with Klebsiella pneumoniae ATCC 10031.
Assay [11] relates to Shigella dysenteriae ATCC 9752.
The test system of assay [12] is Staphylococcus epidermidis ATCC 12228.

What is called MIC is the lowest concentration that inhibits growth of the organism. Low values mean greater potency, high ones weaker potency.

Consider `CC[C@H](C)[C@@H]1NC(=O)[C@H](CCCCN)NC(=O)[C@@H](NC(=O)[C@H](CCSC)NC(=O)[C@H](CC(C)C)NC(=O)[C@@H]2CCCN2C(=O)[C@H](Cc2ccccc2)NC(=O)[C@H](CC(C)C)NC(=O)[C@H](CC(C)C)NC(=O)[C@@H](N)Cc2ccccc2)CSSC[C@@H](C(=O)O)NC(=O)[C@H](CCCCN)NC(=O)CNC(=O)[C@H](CCC(N)=O)NC1=O` [FLLFPLMCKIQGKC], for which the minimal inhibitory concentration (MIC) in assay [1] is 22.9 µM (≈ 37.5 µg/mL); against Klebsiella pneumoniae, greater than 60.9 µM; in [2] it was greater than 60.9 µM; against Serratia marcescens it was no less than 60.9 µM.

With `CC(C)C[C@H](NC(=O)[C@@H](NC(=O)[C@H](CCCCN)NC(=O)[C@H](CCCCN)NC(=O)[C@H](CC(C)C)NC(=O)[C@H](CC(C)C)NC(=O)[C@H](CCCCN)NC(=O)[C@H](CC(C)C)NC(=O)[C@H](C)NC(=O)[C@H](CCCCN)NC(=O)CNC(=O)[C@H](Cc1ccccc1)NC(=O)CN)C(C)C)C(N)=O` [GFGKALKLLKKVL], the MIC stood at 10 µM (≈ 14.1 µg/mL) against Pseudomonas aeruginosa; 10 µM (≈ 14.1 µg/mL) against Staphylococcus aureus; 5 µM (≈ 7.07 µg/mL) in assay [3]; 1.8 µM (≈ 2.54 µg/mL) against Bacillus subtilis 168; 2.5 µM (≈ 3.53 µg/mL) in the assay with Escherichia coli B.

In the case of `CC(C)C[C@H](NC(=O)[C@H](CC(C)C)NC(=O)[C@H](CCCCN)NC(=O)[C@H](CCCCN)NC(=O)[C@H](CC(C)C)NC(=O)[C@H](Cc1c[nH]c2ccccc12)NC(=O)[C@H](CCCCN)NC(=O)[C@H](CC(C)C)NC(=O)[C@H](CC(C)C)NC(=O)[C@@H](N)CCCCN)C(=O)N[C@@H](CCCCN)C(N)=O` [KLLKWLKKLLK], the MIC turned out to be 5.67 µM (≈ 7.99 µg/mL) in assay [4]; 1.42 µM (≈ 2 µg/mL) in assay [5]; 5.67 µM (≈ 7.99 µg/mL) in assay [6]; 1.42 µM (≈ 2 µg/mL) in assay [7]; 1.42 µM (≈ 2 µg/mL) in assay [8]; 1.42 µM (≈ 2 µg/mL) in [9]. Further, the minimal inhibitory concentration (MIC) in [10], in [2], in [11] and in [12] was 1.42 µM (≈ 2 µg/mL) each time.

For the compound `CC(C)C[C@H](NC(=O)[C@H](Cc1c[nH]c2ccccc12)NC(=O)[C@H](CCCCN)NC(=O)[C@H](CC(C)C)NC(=O)[C@H](CC(C)C)NC(=O)[C@H](Cc1c[nH]c2ccccc12)NC(=O)[C@@H](N)CCCCN)C(N)=O` [KWLLKWL], the MIC in assay [4] is no less than 81.1 µM; in assay [5] it was 20.3 µM (≈ 20 µg/mL); in assay [6] it was 81.1 µM (≈ 79.9 µg/mL); in assay [7] it was no less than 81.1 µM; in [8], 20.3 µM (≈ 20 µg/mL); in assay [9] it was greater than 81.1 µM. Further, the MIC was no less than 81.1 µM in [10], 40.6 µM (≈ 40 µg/mL) in assay [2], no less than 81.1 µM in assay [11] and 81.1 µM (≈ 79.9 µg/mL) in [12].

Regarding `CC(C)C[C@H](NC(=O)[C@@H](N)Cc1c[nH]c2ccccc12)C(=O)N[C@@H](CCCCN)C(=O)N[C@@H](CCCCN)C(=O)N[C@@H](Cc1c[nH]c2ccccc12)C(N)=O` [WLKKW], the MIC was no less than 105 µM in assay [4]; no less than 105 µM in [5]; greater than 105 µM in assay [6]; no less than 105 µM in [7]; no less than 105 µM in [8]; greater than 105 µM in [9]. Moreover, the MIC is no less than 105 µM in assay [10], greater than 105 µM in [2], no less than 105 µM in [11] and greater than 105 µM in [12].

Consider `CC(C)C[C@H](NC(=O)[C@H](CC(C)C)NC(=O)[C@@H](N)Cc1c[nH]c2ccccc12)C(=O)N[C@@H](CCCCN)C(=O)N[C@@H](Cc1c[nH]c2ccccc12)C(N)=O` [WLLKW], for which the MIC in assay [4] is no less than 107 µM; in assay [5], no less than 107 µM; in assay [6], greater than 107 µM; in assay [7], no less than 107 µM; in assay [8], no less than 107 µM; in [9] it was greater than 107 µM. In addition, the minimal inhibitory concentration (MIC) is no less than 107 µM in [10], greater than 107 µM in assay [2], no less than 107 µM in assay [11] and greater than 107 µM in assay [12].
